Like-named read-outs stand apart in the source and are kept apart here.
Biological target: T1, LmxCLK1 (Leishmania mexicana, UniProt E9AMP2)
T1 sequence (E9AMP2 1-422): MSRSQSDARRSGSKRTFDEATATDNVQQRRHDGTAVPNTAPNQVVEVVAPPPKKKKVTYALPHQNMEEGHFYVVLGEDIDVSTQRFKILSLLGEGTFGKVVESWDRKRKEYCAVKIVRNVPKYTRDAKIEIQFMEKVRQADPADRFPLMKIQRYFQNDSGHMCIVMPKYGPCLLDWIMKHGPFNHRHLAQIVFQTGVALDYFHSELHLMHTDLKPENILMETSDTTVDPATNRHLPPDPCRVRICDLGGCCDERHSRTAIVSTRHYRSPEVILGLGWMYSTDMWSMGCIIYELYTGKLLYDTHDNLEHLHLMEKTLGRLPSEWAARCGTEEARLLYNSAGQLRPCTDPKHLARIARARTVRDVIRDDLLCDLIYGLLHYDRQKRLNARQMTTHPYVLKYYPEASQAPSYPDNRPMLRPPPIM
Assay: biochemical
Assay type: binding

[1] = DSF, 10 µM compound, 2 µM LmxCLK1, Run 1, read-out: ΔTm Run 1
[2] = DSF, 10 µM compound, 2 µM LmxCLK1, Run 2, read-out: ΔTm Run 2
[3] = DSF, 10 µM compound, 2 µM LmxCLK1, mean of two runs, read-out: ΔTm Average
[4] = DSF, 10 µM compound, 2 µM LmxCLK1, Run 1
[5] = DSF, 10 µM compound, 2 µM LmxCLK1, Run 2
[6] = DSF, 10 µM compound, 2 µM LmxCLK1, mean of two runs

Nc1nccc(Oc2ccc(NC(=O)c3c[nH]cc(-c4ccc(F)cc4)c3=O)cc2F)c1Cl [BMS-794833]
ΔTm at 10 µM [1]: -0.1 °C | ΔTm at 10 µM [2]: -0.4 °C | ΔTm at 10 µM [3]: -0.3 °C

COc1ccc(S(=O)(=O)N(C(C)=O)c2ccccc2/C=C/c2cc[n+]([O-])cc2)cc1 [HMN-214]
ΔTm at 10 µM [1]: 0.4 °C | ΔTm at 10 µM [2]: 0.1 °C | ΔTm at 10 µM [3]: 0.2 °C

Cc1ccc(NC(=O)c2cccc(C(C)(C)C#N)c2)cc1Nc1ccc2ncn(C)c(=O)c2c1 [AZ 628]
ΔTm Run 1 [4]: 0.4 °C | ΔTm Run 2 [5]: 0.2 °C | ΔTm Average [6]: 0.3 °C

C[C@@H](N)[C@H]1CC[C@H](C(=O)Nc2ccncc2)CC1.Cl.Cl [Y-27632 2HCl]
ΔTm Run 1 [4]: 0.1 °C | ΔTm Run 2 [5]: 0.1 °C | ΔTm Average [6]: 0.1 °C

Cc1cnc(-c2cnc(NCCNc3ccc(C#N)cn3)nc2-c2ccc(Cl)cc2Cl)[nH]1.Cl [CHIR-99021 (CT99021) HCl]
ΔTm Run 1 [4]: 0.0 °C | ΔTm Run 2 [5]: 0.0 °C | ΔTm Average [6]: 0.0 °C

CCN(CC)CCCC(C)Nc1nc(C)cc(Nc2ccc3nc(C)cc(N)c3c2)n1 (stereo not drawn) [NSC 23766]
ΔTm Run 1 [4]: 0.0 °C | ΔTm Run 2 [5]: -0.1 °C | ΔTm Average [6]: 0.0 °C

COc1cc2nccc(Oc3ccc(NC(=O)Nc4cc(C)on4)c(Cl)c3)c2cc1OC [Tivozanib (AV-951)]
ΔTm at 10 µM [1]: 0.2 °C | ΔTm at 10 µM [2]: 0 °C | ΔTm at 10 µM [3]: 0.1 °C

O=C(Cc1ccc(-c2ccc(OCCN3CCOCC3)cc2)cn1)NCc1ccccc1 [KX2-391]
ΔTm Average: 0.1 °C | ΔTm Run 1: 0.2 °C | ΔTm Run 2: 0 °C

CC(C)(C)c1cc(C=C(C#N)C#N)cc(C(C)(C)C)c1O [Tyrphostin 9]
ΔTm Run 1 [4]: -0.3 °C | ΔTm Run 2 [5]: -0.3 °C | ΔTm Average [6]: -0.3 °C

Nc1ccc(-c2ccc3ncc4ccc(=O)n(-c5cccc(C(F)(F)F)c5)c4c3c2)cn1 [Torin 2]
ΔTm Run 1 [4]: -0.1 °C | ΔTm Run 2 [5]: 0.0 °C | ΔTm Average [6]: 0.0 °C

Nc1ncnc2c1c(-c1cccc(OCc3ccccc3)c1)cn2[C@H]1C[C@@H](CN2CCC2)C1 [NVP-AEW541]
ΔTm at 10 µM [1]: 0.1 °C | ΔTm at 10 µM [2]: -0.1 °C | ΔTm at 10 µM [3]: 0 °C

CN(C)C/C=C/C(=O)Nc1cc2c(Nc3ccc(F)c(Cl)c3)ncnc2cc1O[C@H]1CCOC1 [Afatinib (BIBW2992)]
ΔTm at 10 µM [1]: 0.1 °C | ΔTm at 10 µM [2]: -0.5 °C | ΔTm at 10 µM [3]: -0.2 °C

CNC(=O)CN1CCC(Oc2cc3c(Nc4cccc(Cl)c4F)ncnc3cc2OC)CC1 [AZD8931 (Sapitinib)]
ΔTm Run 1 [4]: -0.1 °C | ΔTm Run 2 [5]: -0.2 °C | ΔTm Average [6]: -0.1 °C

CCOc1cc(N2CCC(O)CC2)ccc1Nc1ncc2c(n1)N(C)c1ccccc1C(=O)N2C [XMD8-92]
ΔTm Average: -0.3 | ΔTm Run 1: -0.2 | ΔTm Run 2: -0.5

NCC(=O)Nc1ccc(-n2nc(C(F)(F)F)cc2-c2ccc3c(ccc4ccccc43)c2)cc1 [OSU-03012 (AR-12)]
ΔTm Run 1 [4]: -0.1 °C | ΔTm Run 2 [5]: 0.2 °C | ΔTm Average [6]: 0.0 °C

CNCc1ccc(-c2cc(-c3nc(-c4ccc(S(=O)(=O)C(C)C)cc4)cnc3N)on2)cc1 [VE-822]
ΔTm at 10 µM [1]: 0.6 °C | ΔTm at 10 µM [2]: 0.1 °C | ΔTm at 10 µM [3]: 0.4 °C

COc1ccccc1-c1cc(Nc2cccc(CS(N)(=O)=O)c2)ncn1 [LDC000067]
ΔTm Run 1 [4]: -0.1 °C | ΔTm Run 2 [5]: 0.0 °C | ΔTm Average [6]: -0.1 °C

CCN1CCN(C(=O)Cc2ccc(Nc3ncc(F)c(Nc4ccc(C(=O)Nc5ccccc5Cl)cc4)n3)cc2)CC1 [Aurora A Inhibitor I]
ΔTm Run 1 [4]: 0.0 °C | ΔTm Run 2 [5]: -0.1 °C | ΔTm Average [6]: -0.1 °C

Clc1ccc(C2(c3ccc(-c4cn[nH]c4)cc3)CCNCC2)cc1 [AT7867]
ΔTm Run 1 [4]: 1.2 °C | ΔTm Run 2 [5]: 0.7 °C | ΔTm Average [6]: 0.9 °C

Oc1ccc(-c2nc(-c3ccc(F)cc3)c(-c3ccncc3)[nH]2)cc1 [SB202190 (FHPI)]
ΔTm Run 1 [4]: 0.2 °C | ΔTm Run 2 [5]: 0.4 °C | ΔTm Average [6]: 0.3 °C

CNC(=O)c1cc(Oc2ccc(NC(=O)Nc3cc(C(C)(C)C)nn3-c3ccc4ncccc4c3)c(F)c2)ccn1 [DCC-2036 (Rebastinib)]
ΔTm Run 1 [4]: -0.2 °C | ΔTm Run 2 [5]: -0.4 °C | ΔTm Average [6]: -0.3 °C

C#Cc1cccc(Nc2ncnc3cc(OC)c(OCCCCCCC(=O)NO)cc23)c1 [CUDC-101]
ΔTm at 10 µM [1]: 0.4 °C | ΔTm at 10 µM [2]: 0.2 °C | ΔTm at 10 µM [3]: 0.3 °C

O=C(Nc1cccc(Nc2ncc(Br)c(NCCc3cnc[nH]3)n2)c1)N1CCCC1 [BX-912]
ΔTm Run 1 [4]: 0.2 °C | ΔTm Run 2 [5]: 0.2 °C | ΔTm Average [6]: 0.2 °C

C[C@@H]1COCCN1c1cc(C2(S(C)(=O)=O)CC2)nc(-c2cccc3[nH]ccc23)n1 [AZ20]
ΔTm Average: -0.3 | ΔTm Run 1: -0.2 | ΔTm Run 2: -0.5

O=c1ncn2nc(Sc3ccc(F)cc3F)ccc2c1-c1c(Cl)cccc1Cl [VX-745]
ΔTm at 10 µM [1]: 0.4 °C | ΔTm at 10 µM [2]: 0.2 °C | ΔTm at 10 µM [3]: 0.3 °C

Cc1cc(C(C)Nc2ccccc2)c2nc(N3CCOCC3)cc(=O)n2c1 (stereo not drawn) [TGX-221]
ΔTm Run 1 [4]: 0.5 °C | ΔTm Run 2 [5]: 0.3 °C | ΔTm Average [6]: 0.4 °C

O=C(Nc1c[nH]nc1-c1nc2ccc(CN3CCOCC3)cc2[nH]1)NC1CC1 [AT9283]
ΔTm at 10 µM [1]: 2.2 °C | ΔTm at 10 µM [2]: 2.1 °C | ΔTm at 10 µM [3]: 2.2 °C

CC1(COc2ccc3c(c2)ncn3-c2ccc3cccc(N4CCC(N)CC4)c3n2)COC1 [Crenolanib (CP-868596)]
ΔTm Run 1 [4]: 0.5 °C | ΔTm Run 2 [5]: -0.1 °C | ΔTm Average [6]: 0.2 °C

CCS(=O)(=O)Nc1ccc2c(c1)/C(=C(/Nc1ccc(CN3CCCCC3)cc1)c1ccccc1)C(=O)N2 [Hesperadin]
ΔTm at 10 µM [1]: 1.7 °C | ΔTm at 10 µM [2]: 1.3 °C | ΔTm at 10 µM [3]: 1.5 °C

CCOc1ccn(-c2ccc(F)cc2)c(=O)c1C(=O)Nc1ccc(Oc2ccnc(N)c2Cl)c(F)c1 [BMS-777607]
ΔTm at 10 µM [1]: 0.5 °C | ΔTm at 10 µM [2]: -0.2 °C | ΔTm at 10 µM [3]: 0.2 °C

Cc1cn(-c2cc(NC(=O)c3ccc(C)c(Nc4nccc(-c5cccnc5)n4)c3)cc(C(F)(F)F)c2)cn1 [Nilotinib (AMN-107)]
ΔTm Run 1 [4]: 0.0 °C | ΔTm Run 2 [5]: 0.0 °C | ΔTm Average [6]: 0.0 °C

Cc1cc(Nc2nc(N[C@@H](C)c3ncc(F)cn3)ncc2Cl)n[nH]1 [AZD1480]
ΔTm at 10 µM [1]: 0.6 °C | ΔTm at 10 µM [2]: 0.5 °C | ΔTm at 10 µM [3]: 0.6 °C

Cn1cc(-c2cnn3c(N)c(Br)c([C@@H]4CCCNC4)nc23)cn1 [MK-8776 (SCH 900776)]
ΔTm Average: 0.3 °C | ΔTm Run 1: 0.5 °C | ΔTm Run 2: 0 °C

FC(F)c1nc2ccccc2n1-c1nc(N2CCOCC2)nc(N2CCOCC2)n1 [ZSTK474]
ΔTm at 10 µM [1]: 0 °C | ΔTm at 10 µM [2]: 0 °C | ΔTm at 10 µM [3]: 0 °C

Cc1cnc(Nc2ccc(OCCN3CCCC3)cc2)nc1Nc1cccc(S(=O)(=O)NC(C)(C)C)c1 [TG101348 (SAR302503)]
ΔTm Run 1 [4]: 0.2 °C | ΔTm Run 2 [5]: 0.3 °C | ΔTm Average [6]: 0.3 °C

Cc1cc2c(F)c(Oc3ncnn4cc(OC[C@@H](C)OC(=O)[C@H](C)N)c(C)c34)ccc2[nH]1 [Brivanib Alaninate (BMS-582664)]
ΔTm Run 1 [4]: 0.3 °C | ΔTm Run 2 [5]: 0.1 °C | ΔTm Average [6]: 0.2 °C

NC(=O)c1ccc(N(C(N)=O)c2c(F)cccc2F)nc1-c1ccc(F)cc1F [VX-702]
ΔTm at 10 µM [1]: 0.3 °C | ΔTm at 10 µM [2]: -0.2 °C | ΔTm at 10 µM [3]: 0 °C

Nc1nc(N)c(N=O)c(OCC2CCCCC2)n1 [NU6027]
ΔTm at 10 µM (read-out: ΔTm Average): 0 °C | ΔTm at 10 µM (read-out: ΔTm Run 1): 0.1 °C | ΔTm at 10 µM (read-out: ΔTm Run 2): -0.2 °C

COc1ccc(F)c(F)c1C(=O)c1cnc(NC2CCN(S(C)(=O)=O)CC2)nc1N [R547]
ΔTm Average: -0.2 | ΔTm Run 1: 0 °C | ΔTm Run 2: -0.4

HER2-Inhibitor-1
ΔTm Run 1 [4]: 0.2 °C | ΔTm Run 2 [5]: -0.1 °C | ΔTm Average [6]: 0.1 °C

CCC[C@H](NC(=O)/C(C#N)=C/c1cccc(Br)n1)c1ccccc1 [Degrasyn (WP1130)]
ΔTm Run 1 [4]: 0.4 °C | ΔTm Run 2 [5]: 0.2 °C | ΔTm Average [6]: 0.3 °C

Cc1ccc(Nc2nccc(N(C)c3ccc4c(C)n(C)nc4c3)n2)cc1S(N)(=O)=O [Pazopanib]
ΔTm at 10 µM [1]: 0.1 °C | ΔTm at 10 µM [2]: -0.4 °C | ΔTm at 10 µM [3]: -0.2 °C

Cc1[nH]nc2ccc(-c3cncc(OC[C@@H](N)Cc4ccccc4)c3)cc12 [A-674563]
ΔTm Average: 0.7 °C | ΔTm Run 1: 0.8 °C | ΔTm Run 2: 0.6 °C

CO[C@H]1C[C@@H]2CC[C@@H](C)[C@@](O)(O2)C(=O)C(=O)N2CCCC[C@H]2C(=O)O[C@H]([C@H](C)C[C@@H]2CC[C@@H](O)[C@H](OC)C2)CC(=O)[C@H](C)/C=C(\C)[C@@H](O)[C@@H](OC)C(=O)[C@H](C)C[C@H](C)/C=C/C=C/C=C/1C [Rapamycin (Sirolimus)]
ΔTm at 10 µM [1]: 0.3 °C | ΔTm at 10 µM [2]: -0.1 °C | ΔTm at 10 µM [3]: 0.1 °C

COCCOc1ccc2c(c1)ncn2-c1ccc2cccc(N3CCC(N)CC3)c2n1 [CP-673451]
ΔTm at 10 µM [1]: 0.1 °C | ΔTm at 10 µM [2]: 0 °C | ΔTm at 10 µM [3]: 0 °C

O=C(NC[C@H](O)CO)c1ccncc1Nc1ccc(I)cc1F [Pimasertib (AS-703026)]
ΔTm Run 1 [4]: 0.2 °C | ΔTm Run 2 [5]: -0.1 °C | ΔTm Average [6]: 0.0 °C

CCNC(=O)Nc1ccc(-c2nc3c(c(N4CCOC[C@@H]4C)n2)CCN(C2COC2)C3)cc1 [GDC-0349]
ΔTm at 10 µM [1]: -0.1 °C | ΔTm at 10 µM [2]: -0.1 °C | ΔTm at 10 µM [3]: -0.1 °C

— article PMC7619385 (ACS infectious diseases, 2025)
